# Source: ChEMBL document CHEMBL5346969 (J Med Chem, 2023)
# Active and inactive are the calls of the source. The calls are words filed in the database; no cut-off is given here.
# What was measured:
# MDA-MB-231 [1] = assay: Induction of ferroptosis in human MDA-MB-231 cells with assessed as change in FTH1 protein expression level at 5 to 20 nM incubated for 8 hrs in presence of ferroptosis inhibitor, ferrostatin-1 by Western blot analysis; format: functional, cell-based; details: dose 5-20 nM
# MDA-MB-231 [2] = assay: Induction of ferroptosis-mediated morphological changes in human MDA-MB-231 cells assessed as decreased or absence of mitochondrial crests at 20 nM incubated for 6 hrs by TEM analysis; format: functional, cell-based
# [3] = Toxicity in immunodeficient BALB/c mouse xenografted with human MDA-MB-231 cells assessed as morphological changes in heart at 20 mg/kg, ip for 21 days by H and E staining based microscopy; format: organism-based; details: in vivo, 504 h, time 21 day
# MDA-MB-231 [4] = assay: Induction of ferroptosis-mediated morphological changes in human MDA-MB-231 cells assessed as round and vacuolated cells at 20 nM incubated for 6 hrs by TEM analysis; format: functional, cell-based
# MDA-MB-231 [5] = assay: Induction of ferroptosis in human MDA-MB-231 cells assessed as cell viability at 1 uM incubated for 72 hrs in presence of apoptosis inhibitor, Z-VAD-FMK by MTT assay; format: functional, cell-based
# MDA-MB-231 [6] = assay: Antiproliferative activity against human MDA-MB-231 cells assessed as inhibition of cell viability incubated for 72 hrs by MTT assay; format: functional, cell-based; details: MDA-MB-231, 72 h
# MDA-MB-231 [7] = assay: Induction of ferroptosis in human MDA-MB-231 cells assessed as increase in intracellular lipid peroxidase by measuring MDA content at 5 to 20 nM incubated for 8 hrs by C11-BODIPY-581/591 staining based flow cytometry analysis; format: functional, cell-based; details: dose 5-20 nM
# MDA-MB-231 [8] = assay: Induction of ferroptosis in human MDA-MB-231 cells assessed as cell viability at 1 uM incubated for 72 hrs in presence of N-acetyl-L-cysteine by MTT assay; format: functional, cell-based
# MCF7 = assay: Antiproliferative activity against human MCF7 cells assessed as inhibition of cell viability at 1 uM incubated for 72 hrs by MTT assay; format: functional, cell-based
# MDA-MB-231 [9] = assay: Induction of ferroptosis-mediated antitumor activity against human MDA-MB-231 cells xenografted in immunodeficient BALB/C mouse assessed as reduction in GPX4 level in tumor tissue at 5 to 20 mg/kg,ip for 21 days by Western blot analysis; format: functional, organism-based; details: dose 5-20 mg/kg, time 21.0 day
# MDA-MB-231 [10] = assay: Induction of ferroptosis in human MDA-MB-231 cells with assessed as decrease in GPX4 protein expression level at 5 to 20 nM incubated for 8 hrs by Western blot analysis; format: functional, cell-based; details: dose 5-20 nM
# Hep 3B2 = assay: Antiproliferative activity against human Hep3B cells assessed as inhibition of cell viability at 1 uM incubated for 72 hrs by MTT assay; format: functional, cell-based
# MDA-MB-231 [11] = assay: Induction of ferroptosis in human MDA-MB-231 cells with assessed as decrease in FTH1 protein expression level at 5 to 20 nM incubated for 8 hrs by Western blot analysis; format: functional, cell-based; details: dose 5-20 nM
# [12] = Toxicity in immunodeficient BALB/c mouse xenografted with human MDA-MB-231 cells assessed as morphological changes in lung at 20 mg/kg, ip for 21 days by H and E staining based microscopy; format: organism-based; details: in vivo, 504 h, time 21 day
# [13] = Toxicity in immunodeficient BALB/c mouse xenografted with human MDA-MB-231 cells assessed as body weight change at 5 to 20 mg/kg, ip for 21 days; format: organism-based; details: in vivo, 504 h, dose 5-20 mg/kg, time 21 day
# MDA-MB-231 [14] = assay: Induction of ferroptosis in human MDA-MB-231 cells assessed as cell viability at 1 uM incubated for 72 hrs in presence of ferroptosis inhibitor, ferrostatin-1 by MTT assay; format: functional, cell-based
# A549 = assay: Antiproliferative activity against human A549 cells assessed as inhibition of cell viability at 1 uM incubated for 72 hrs by MTT assay; format: functional, cell-based
# MDA-MB-231 [15] = assay: Induction of ferroptosis in human MDA-MB-231 cells with assessed as change in GPX4 protein expression level at 5 to 20 nM incubated for 8 hrs in presence of ferroptosis inhibitor, ferrostatin-1 by Western blot analysis; format: functional, cell-based; details: dose 5-20 nM
# HeLa = assay: Antiproliferative activity against human HeLa cells assessed as inhibition of cell viability at 1 uM incubated for 72 hrs by MTT assay; format: functional, cell-based
# MDA-MB-231 [16] = assay: Induction of ferroptosis in human MDA-MB-231 cells assessed as cell viability incubated for 72 hrs in presence of glutathione by MTT assay; format: functional, cell-based; details: MDA-MB-231, 72 h
# [17] = Selectivity ratio, ratio of IC50 for Induction of ferroptosis in human MDA-MB-231 cells assessed as reduction in cell viability in presence of ferroptosis inhibitor, ferrostatin-1 to IC50 for antiproliferative activity against human MDA-MB-231 cells; format: functional
# MDA-MB-231 [18] = assay: Antitumor activity against human MDA-MB-231 cells xenografted in immunodeficient BALB/c mouse assessed as tumor growth inhibition at 20 mg/kg,ip for 21 days consecutively every day; format: functional; details: MDA-MB-231, 504 h, time 21 day, read-out: TGI
# [19] = Toxicity in immunodeficient BALB/c mouse xenografted with human MDA-MB-231 cells assessed as morphological changes in spleen at 20 mg/kg, ip for 21 days by H and E staining based microscopy; format: organism-based; details: in vivo, 504 h, time 21 day
# MDA-MB-231 [20] = assay: Induction of ferroptosis in human MDA-MB-231 cells assessed as cell viability at 1 uM incubated for 72 hrs in presence of deferoxamine by MTT assay; format: functional, cell-based
# [21] = Toxicity in immunodeficient BALB/c mouse assessed as change in BUN level at 20 mg/kg, ip for 14 days by biochemical analysis; format: organism-based; details: in vivo, 336 h, time 14 day
# MDA-MB-231 [22] = assay: Induction of ferroptosis in human MDA-MB-231 cells assessed as cell viability incubated for 72 hrs in presence of deferoxamine by MTT assay; format: functional, cell-based; details: MDA-MB-231, 72 h
# BT-549 = assay: Antiproliferative activity against human BT-549 cells assessed as inhibition of cell viability incubated for 72 hrs by MTT assay; format: functional, cell-based; details: BT-549, 72 h
# [23] = Metabolic stability in human liver microsomes assessed as intrinsic clearance at 1 uM incubated upto 60 mins in presence of NADPH by LC-MS/MS analysis; format: ADME, Microsome; details: read-out: CLH
# MDA-MB-231 [24] = assay: Antiproliferative activity against human MDA-MB-231 cells assessed as inhibition of cell viability at 1 uM incubated for 72 hrs by MTT assay; format: functional, cell-based
# [25] = target: T1, Phospholipid hydroperoxide glutathione peroxidase GPX4 (Homo sapiens) (UniProt P36969); assay: Inhibition of GPX4 (unknown origin) at 1 uM incubated for 1 hrs in presence of glutathione and glutathione reductase by microplate reader analysis
# T1 sequence (whole entry): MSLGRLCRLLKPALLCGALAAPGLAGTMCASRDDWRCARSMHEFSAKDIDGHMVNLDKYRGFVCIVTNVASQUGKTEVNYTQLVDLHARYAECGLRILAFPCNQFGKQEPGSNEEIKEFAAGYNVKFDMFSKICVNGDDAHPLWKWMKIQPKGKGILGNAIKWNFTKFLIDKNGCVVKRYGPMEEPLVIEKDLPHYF
# MDA-MB-231 [26] = assay: Induction of ferroptosis in human MDA-MB-231 cells assessed as increase in intracellular ROS accumulation by measuring green fluorescence intensity at 20 nM incubated for 8 hrs in presence of ferroptosis inhibitor, ferrostatin-1 by DCFH-DA staining based confocal laser microscopy; format: functional, cell-based
Compound,Activity (MDA-MB-231 [1]),Activity (MDA-MB-231 [2]),Activity [3],Activity (MDA-MB-231 [4]),Activity (MDA-MB-231 [5]),IC50 (MDA-MB-231 [6]),Activity (MDA-MB-231 [7]),Activity (MDA-MB-231 [8]),Activity (MCF7),Activity (MDA-MB-231 [9]),Activity (MDA-MB-231 [10]),Activity (Hep 3B2),Activity (MDA-MB-231 [11]),Activity [12],Activity [13],Activity (MDA-MB-231 [14]),Activity (A549),Activity (MDA-MB-231 [15]),Activity (HeLa),IC50 (MDA-MB-231 [16]),further results
COc1cc(N(C(=O)CBr)c2ccc3c(c2)OCCO3)cc(OC)c1F,inactive,Active,Non-Toxic,Active,inactive,8 nM,Dose-Dependent Effect,Active,inactive,Active,Active,inactive,Active,Non-Toxic,Non-Toxic,Active,inactive,inactive,inactive,> 20000 nM,Ratio IC50 [17]: 218.8; inhibition in vivo at 20 mg/kg (MDA-MB-231 [18]): 71.7%; Activity [19]: Non-Toxic; Activity (MDA-MB-231 [20]): Active; Activity [21]: Toxic; IC50 (MDA-MB-231 [22]): 1850 nM; IC50 (BT-549): 34 nM; microsomal CLint at 1 µM [23]: 1740 µL/min/mg; Activity (MDA-MB-231 [24]): Active; inhibition [25]: 97.4%; Activity (MDA-MB-231 [26]): inactive
COc1cc(N(C(=O)CCl)c2ccc3c(c2)OCCO3)cc(OC)c1F,inactive,Active,Non-Toxic,Active,inactive,12 nM,Dose-Dependent Effect,Active,Active,Active,Active,inactive,Active,Non-Toxic,Non-Toxic,Active,inactive,inactive,inactive,> 20000 nM,Ratio IC50 [17]: 249.5; inhibition in vivo at 20 mg/kg (MDA-MB-231 [18]): 81%; Activity [19]: Non-Toxic; Activity (MDA-MB-231 [20]): Active; Activity [21]: Toxic; IC50 (MDA-MB-231 [22]): 2570 nM; IC50 (BT-549): 75 nM; microsomal CLint at 1 µM [23]: 416 µL/min/mg; Activity (MDA-MB-231 [24]): Active; inhibition [25]: 98.8%; Activity (MDA-MB-231 [26]): inactive
